# Experimental data: ChEMBL document CHEMBL3414551, “Selective inhibitors of protein methyltransferases” (J Med Chem, 2015)
# Experiments:
# Mus musculus = test: Cmax in Swiss albino mouse at 50 mg/kg, po; format: ADME, organism-based; design: dose 50 mg/kg, route oral; conditions: in vivo
# [1] = target: T1, Histone-lysine N-methyltransferase EZH2 (Homo sapiens, UniProt Q15910); test: Inhibition of EZH2 (unknown origin) using biotinylated-histone H3 (1 to 24) as substrate after 1 hr by scintillation proximity assay in presence of [3H]-SAM
# T1 sequence (Q15910 whole entry): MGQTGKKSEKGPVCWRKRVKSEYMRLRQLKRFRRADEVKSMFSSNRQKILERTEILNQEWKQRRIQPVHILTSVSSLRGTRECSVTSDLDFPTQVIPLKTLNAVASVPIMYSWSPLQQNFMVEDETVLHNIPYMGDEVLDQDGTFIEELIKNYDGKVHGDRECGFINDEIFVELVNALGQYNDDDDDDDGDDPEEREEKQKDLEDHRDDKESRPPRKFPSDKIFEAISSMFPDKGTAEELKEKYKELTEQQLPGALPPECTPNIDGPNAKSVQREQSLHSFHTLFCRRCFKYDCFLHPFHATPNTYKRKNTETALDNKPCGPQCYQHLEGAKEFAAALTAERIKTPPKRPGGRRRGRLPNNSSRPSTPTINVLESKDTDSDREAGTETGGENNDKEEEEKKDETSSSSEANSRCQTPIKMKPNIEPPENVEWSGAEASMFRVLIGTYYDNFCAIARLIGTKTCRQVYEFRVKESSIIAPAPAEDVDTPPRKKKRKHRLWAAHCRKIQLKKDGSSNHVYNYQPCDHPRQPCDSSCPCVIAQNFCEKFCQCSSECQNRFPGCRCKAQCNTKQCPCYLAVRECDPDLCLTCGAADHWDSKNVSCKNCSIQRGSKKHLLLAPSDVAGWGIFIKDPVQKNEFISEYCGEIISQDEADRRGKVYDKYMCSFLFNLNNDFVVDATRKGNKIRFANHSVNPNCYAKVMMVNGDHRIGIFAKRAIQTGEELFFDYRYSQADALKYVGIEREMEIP
# [2] = target: T2, Histone-lysine N-methyltransferase EHMT2 (Homo sapiens, UniProt Q96KQ7); test: Inhibition of G9a (unknown origin) using SAM/biotinylated H3 as substrate preincubated for 1 hr followed by substrate addition measured after 2 hrs by ELISA
# T2 sequence (Q96KQ7 whole entry): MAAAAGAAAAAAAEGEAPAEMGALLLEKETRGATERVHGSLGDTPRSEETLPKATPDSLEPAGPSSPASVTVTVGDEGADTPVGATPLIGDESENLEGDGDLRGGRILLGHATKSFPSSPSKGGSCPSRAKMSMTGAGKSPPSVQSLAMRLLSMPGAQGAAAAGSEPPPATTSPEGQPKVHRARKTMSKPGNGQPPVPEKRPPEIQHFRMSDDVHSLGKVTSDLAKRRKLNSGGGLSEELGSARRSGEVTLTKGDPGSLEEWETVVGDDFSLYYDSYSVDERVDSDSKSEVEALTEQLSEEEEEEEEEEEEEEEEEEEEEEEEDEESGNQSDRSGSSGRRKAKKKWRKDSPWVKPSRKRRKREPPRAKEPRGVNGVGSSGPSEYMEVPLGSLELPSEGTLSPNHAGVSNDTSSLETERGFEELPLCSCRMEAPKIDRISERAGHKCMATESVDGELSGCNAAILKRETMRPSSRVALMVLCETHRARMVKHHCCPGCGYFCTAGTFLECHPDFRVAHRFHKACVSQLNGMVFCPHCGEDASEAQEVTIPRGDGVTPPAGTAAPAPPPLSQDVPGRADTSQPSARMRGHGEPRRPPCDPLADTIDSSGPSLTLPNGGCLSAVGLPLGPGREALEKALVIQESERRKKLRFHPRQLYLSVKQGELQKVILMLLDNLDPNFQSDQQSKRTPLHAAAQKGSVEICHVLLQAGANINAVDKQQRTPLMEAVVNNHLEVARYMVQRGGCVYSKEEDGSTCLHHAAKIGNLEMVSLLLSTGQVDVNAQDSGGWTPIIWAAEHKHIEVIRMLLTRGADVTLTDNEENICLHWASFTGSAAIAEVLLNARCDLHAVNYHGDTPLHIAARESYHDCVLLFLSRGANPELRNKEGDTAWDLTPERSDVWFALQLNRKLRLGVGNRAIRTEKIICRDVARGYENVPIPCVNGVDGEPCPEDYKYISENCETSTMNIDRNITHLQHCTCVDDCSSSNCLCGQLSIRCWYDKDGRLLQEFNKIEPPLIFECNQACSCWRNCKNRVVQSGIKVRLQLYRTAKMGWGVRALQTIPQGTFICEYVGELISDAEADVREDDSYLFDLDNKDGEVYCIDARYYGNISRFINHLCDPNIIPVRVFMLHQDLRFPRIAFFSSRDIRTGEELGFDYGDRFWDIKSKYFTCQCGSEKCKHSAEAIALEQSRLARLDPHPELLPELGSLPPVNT
# [3] = target: T3, Protein arginine N-methyltransferase 1 (Homo sapiens, UniProt Q99873); test: Inhibition of recombinant GST-tagged PRMT1 (unknown origin) using GST-P3 as substrate after 90 mins by scintillation counting analysis in presence of [3H]AdoMet
# T3 sequence (Q99873 whole entry): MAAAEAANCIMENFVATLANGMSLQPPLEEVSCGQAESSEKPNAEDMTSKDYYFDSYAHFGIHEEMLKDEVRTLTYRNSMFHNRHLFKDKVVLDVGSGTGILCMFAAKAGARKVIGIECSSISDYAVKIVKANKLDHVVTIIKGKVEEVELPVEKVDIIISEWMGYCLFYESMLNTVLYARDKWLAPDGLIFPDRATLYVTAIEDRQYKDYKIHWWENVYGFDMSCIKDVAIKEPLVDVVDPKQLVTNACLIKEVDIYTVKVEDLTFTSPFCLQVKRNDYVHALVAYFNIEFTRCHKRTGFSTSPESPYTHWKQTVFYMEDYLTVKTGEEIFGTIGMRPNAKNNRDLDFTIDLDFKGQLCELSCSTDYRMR
# [4] = target: T4, Histone-arginine methyltransferase CARM1 (Homo sapiens) (UniProt Q86X55); test: Inhibition of CARM1 in human HeLa cells assessed as reduction of H3R17 methylation at 5 uM after 24 hrs by Western blot analysis relative to control; format: cell-based
# T4 sequence (whole entry): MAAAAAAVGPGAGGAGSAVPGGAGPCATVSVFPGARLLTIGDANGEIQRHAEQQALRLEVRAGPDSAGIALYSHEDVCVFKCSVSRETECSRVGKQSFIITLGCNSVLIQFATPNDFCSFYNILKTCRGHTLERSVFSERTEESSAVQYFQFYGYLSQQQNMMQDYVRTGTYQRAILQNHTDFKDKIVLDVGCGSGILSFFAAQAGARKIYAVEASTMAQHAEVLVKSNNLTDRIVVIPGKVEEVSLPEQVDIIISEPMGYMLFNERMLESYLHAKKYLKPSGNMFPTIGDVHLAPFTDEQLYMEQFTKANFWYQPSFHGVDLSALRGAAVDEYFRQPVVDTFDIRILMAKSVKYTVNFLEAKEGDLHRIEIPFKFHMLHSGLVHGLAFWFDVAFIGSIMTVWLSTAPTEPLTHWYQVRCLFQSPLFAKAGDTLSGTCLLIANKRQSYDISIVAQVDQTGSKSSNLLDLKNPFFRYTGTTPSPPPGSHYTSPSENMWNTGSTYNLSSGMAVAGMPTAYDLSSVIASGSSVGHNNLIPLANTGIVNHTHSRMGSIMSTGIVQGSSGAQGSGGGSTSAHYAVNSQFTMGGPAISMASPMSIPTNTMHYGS
# [5] = target: T1, Histone-lysine N-methyltransferase EZH2; test: Inhibition of human EZH2 using SAM and histone H3 (16 to 30) as substrate preincubated for 30 mins followed by substrate addition measured after 90 mins by flash plate assay
# [6] = target: T3, Protein arginine N-methyltransferase 1; test: Inhibition of recombinant human GST-tagged PRMT1 using GST-Npl3 as substrate
# [7] = target: T5, Histone-arginine methyltransferase CARM1 (Homo sapiens, UniProt Q86X55); test: Inhibition of recombinant human GST-tagged CARM1
# T5 sequence (Q86X55 whole entry): T4 sequence (whole entry)
# [8] = target: T1, Histone-lysine N-methyltransferase EZH2; test: Inhibition of N-terminal FLAG tagged full-length human EZH2 expressed in baculovirus infected Sf9 cells using H3K27 as substrate after 120 mins by mass spectrophotometric analysis
# [9] = target: T1, Histone-lysine N-methyltransferase EZH2; test: Inhibition of N-terminal FLAG tagged full-length human EZH2 expressed in baculovirus infected Sf9 cells using H3K27 as substrate in presence of SAM
# [10] = target: Histone-lysine N-methyltransferase EZH2 (Homo sapiens, UniProt Q15910, Y641F); test: Inhibition of N-terminal FLAG tagged human EZH2 Y641F mutant expressed in baculovirus infected Sf9 cells using H3K27 as substrate after 120 mins by mass spectrophotometric analysis
# Histone-lysine N-methyltransferase EZH2 (Homo sapiens, UniProt Q15910, Y641F), sequence (Q15910 whole entry Y641F): as the sequence (Q15910 whole entry) above, with Y641F counted along it
# [11] = target: T6, Histone-lysine N-methyltransferase EHMT1 (Homo sapiens, UniProt Q9H9B1); test: Inhibition of recombinant human GLP (951 to 1235) using Histone H3 peptide (1 to 15) as substrate preincubated on ice for 10 mins followed by 5 mins incubation at 30 degC measured 5 mins post substrate addition by mass spectrophotometric analysis
# T6 sequence (Q9H9B1 whole entry): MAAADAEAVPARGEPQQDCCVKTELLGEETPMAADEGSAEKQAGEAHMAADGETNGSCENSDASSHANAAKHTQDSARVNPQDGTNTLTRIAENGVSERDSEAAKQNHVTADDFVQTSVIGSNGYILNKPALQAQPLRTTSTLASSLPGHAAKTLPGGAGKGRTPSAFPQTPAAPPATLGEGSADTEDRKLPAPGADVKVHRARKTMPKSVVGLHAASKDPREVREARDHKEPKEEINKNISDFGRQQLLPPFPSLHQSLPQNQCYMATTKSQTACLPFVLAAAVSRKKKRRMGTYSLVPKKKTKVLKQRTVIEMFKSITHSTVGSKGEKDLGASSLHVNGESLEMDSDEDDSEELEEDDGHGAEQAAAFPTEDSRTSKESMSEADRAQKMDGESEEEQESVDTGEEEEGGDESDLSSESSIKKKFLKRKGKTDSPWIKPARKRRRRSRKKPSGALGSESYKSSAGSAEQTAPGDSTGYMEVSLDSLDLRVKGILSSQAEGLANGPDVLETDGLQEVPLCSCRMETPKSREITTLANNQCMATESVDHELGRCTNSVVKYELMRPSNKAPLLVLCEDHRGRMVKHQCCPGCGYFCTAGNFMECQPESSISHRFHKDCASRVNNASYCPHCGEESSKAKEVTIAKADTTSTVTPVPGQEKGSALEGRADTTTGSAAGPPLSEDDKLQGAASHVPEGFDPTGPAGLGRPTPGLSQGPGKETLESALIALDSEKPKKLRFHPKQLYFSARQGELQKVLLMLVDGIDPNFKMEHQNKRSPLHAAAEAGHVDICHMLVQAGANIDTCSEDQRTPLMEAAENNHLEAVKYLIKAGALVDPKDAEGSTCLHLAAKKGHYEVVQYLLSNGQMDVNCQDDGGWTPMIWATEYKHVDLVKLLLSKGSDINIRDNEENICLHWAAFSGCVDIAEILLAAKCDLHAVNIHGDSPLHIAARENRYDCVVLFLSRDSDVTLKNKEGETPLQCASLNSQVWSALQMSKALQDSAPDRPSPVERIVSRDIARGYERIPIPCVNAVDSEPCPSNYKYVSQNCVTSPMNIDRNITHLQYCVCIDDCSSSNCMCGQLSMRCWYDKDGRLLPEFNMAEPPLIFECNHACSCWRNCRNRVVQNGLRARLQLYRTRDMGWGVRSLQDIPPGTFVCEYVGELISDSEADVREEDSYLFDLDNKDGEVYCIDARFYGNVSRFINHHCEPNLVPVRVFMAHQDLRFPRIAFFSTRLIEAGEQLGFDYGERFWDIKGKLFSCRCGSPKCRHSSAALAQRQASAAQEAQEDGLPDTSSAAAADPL
# [12] = target: T7, N-lysine methyltransferase KMT5A (Homo sapiens, UniProt Q9NQR1); test: Inhibition of N-terminal His6-tagged human SETD8 (191 to 352) assessed as incorporation of [3H]-methyl group from [3H-Me]-SAM to biotinylated H4K20 peptide substrate preincubated for 10 mins followed by substrate addition by liquid scintillation counting analysis
# T7 sequence (Q9NQR1 whole entry): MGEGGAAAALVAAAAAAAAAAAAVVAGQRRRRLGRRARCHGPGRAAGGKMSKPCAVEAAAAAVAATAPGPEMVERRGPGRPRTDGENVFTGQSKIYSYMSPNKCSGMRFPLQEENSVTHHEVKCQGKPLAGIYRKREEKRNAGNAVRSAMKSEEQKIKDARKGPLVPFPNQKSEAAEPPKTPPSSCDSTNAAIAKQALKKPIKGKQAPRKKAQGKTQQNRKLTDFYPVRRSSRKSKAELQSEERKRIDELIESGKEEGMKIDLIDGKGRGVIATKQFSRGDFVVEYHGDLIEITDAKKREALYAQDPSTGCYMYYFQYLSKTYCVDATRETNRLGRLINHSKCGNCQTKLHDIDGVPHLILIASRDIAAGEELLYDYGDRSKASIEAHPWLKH
# [13] = target: N-lysine methyltransferase SMYD2 (Homo sapiens, UniProt Q9NRG4); test: Binding affinity to recombinant human full-length SMYD2 (1 to 433) by ITC analysis
# N-lysine methyltransferase SMYD2, sequence (Q9NRG4 whole entry): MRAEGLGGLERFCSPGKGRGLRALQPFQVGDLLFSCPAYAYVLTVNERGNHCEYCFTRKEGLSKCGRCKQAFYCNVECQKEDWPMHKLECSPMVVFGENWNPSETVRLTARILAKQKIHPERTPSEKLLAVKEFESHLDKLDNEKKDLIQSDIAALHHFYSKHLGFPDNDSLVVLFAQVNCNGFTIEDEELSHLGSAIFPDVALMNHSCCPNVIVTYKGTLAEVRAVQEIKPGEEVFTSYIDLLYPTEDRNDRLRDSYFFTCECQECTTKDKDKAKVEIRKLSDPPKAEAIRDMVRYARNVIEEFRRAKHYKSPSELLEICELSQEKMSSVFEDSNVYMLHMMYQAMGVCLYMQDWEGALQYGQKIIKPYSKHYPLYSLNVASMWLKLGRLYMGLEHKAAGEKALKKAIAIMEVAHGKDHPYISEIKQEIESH
# cells [14] = conditions: Homo sapiens, U-937
# REH = test: cells; conditions: Homo sapiens
# Jurkat = test: cells; conditions: Homo sapiens
# Kasumi 1 = test: cells; conditions: Homo sapiens
# 697 = test: cells; conditions: Homo sapiens
# cells [15] = conditions: Homo sapiens, HL-60
# Homo sapiens [16] = species on record: Homo sapiens; test: Selectivity ratio of IC50 for human SMYD2 to IC50 for N-terminal His6-tagged human SETD8 (191 to 352)
# Homo sapiens [17] = species on record: Homo sapiens; test: Selectivity ratio of IC50 for N-terminal His6-tagged human PRMT1 (10 to 352) to IC50 for N-terminal His6-tagged human SETD8 (191 to 352)
# Homo sapiens [18] = species on record: Homo sapiens; test: Selectivity ratio of IC50 for N-terminal His6-tagged human PRMT3 (211 to 531) to IC50 for N-terminal His6-tagged human SETD8 (191 to 352)
# [19] = target: Histone-lysine N-methyltransferase, H3 lysine-79 specific (Homo sapiens, UniProt Q8TEK3); test: Inhibition of DOT1L in human MCF10A cells assessed as reduction of H3K79 level; format: cell-based, MCF-10A
# Histone-lysine N-methyltransferase, H3 lysine-79 specific, sequence (Q8TEK3 whole entry): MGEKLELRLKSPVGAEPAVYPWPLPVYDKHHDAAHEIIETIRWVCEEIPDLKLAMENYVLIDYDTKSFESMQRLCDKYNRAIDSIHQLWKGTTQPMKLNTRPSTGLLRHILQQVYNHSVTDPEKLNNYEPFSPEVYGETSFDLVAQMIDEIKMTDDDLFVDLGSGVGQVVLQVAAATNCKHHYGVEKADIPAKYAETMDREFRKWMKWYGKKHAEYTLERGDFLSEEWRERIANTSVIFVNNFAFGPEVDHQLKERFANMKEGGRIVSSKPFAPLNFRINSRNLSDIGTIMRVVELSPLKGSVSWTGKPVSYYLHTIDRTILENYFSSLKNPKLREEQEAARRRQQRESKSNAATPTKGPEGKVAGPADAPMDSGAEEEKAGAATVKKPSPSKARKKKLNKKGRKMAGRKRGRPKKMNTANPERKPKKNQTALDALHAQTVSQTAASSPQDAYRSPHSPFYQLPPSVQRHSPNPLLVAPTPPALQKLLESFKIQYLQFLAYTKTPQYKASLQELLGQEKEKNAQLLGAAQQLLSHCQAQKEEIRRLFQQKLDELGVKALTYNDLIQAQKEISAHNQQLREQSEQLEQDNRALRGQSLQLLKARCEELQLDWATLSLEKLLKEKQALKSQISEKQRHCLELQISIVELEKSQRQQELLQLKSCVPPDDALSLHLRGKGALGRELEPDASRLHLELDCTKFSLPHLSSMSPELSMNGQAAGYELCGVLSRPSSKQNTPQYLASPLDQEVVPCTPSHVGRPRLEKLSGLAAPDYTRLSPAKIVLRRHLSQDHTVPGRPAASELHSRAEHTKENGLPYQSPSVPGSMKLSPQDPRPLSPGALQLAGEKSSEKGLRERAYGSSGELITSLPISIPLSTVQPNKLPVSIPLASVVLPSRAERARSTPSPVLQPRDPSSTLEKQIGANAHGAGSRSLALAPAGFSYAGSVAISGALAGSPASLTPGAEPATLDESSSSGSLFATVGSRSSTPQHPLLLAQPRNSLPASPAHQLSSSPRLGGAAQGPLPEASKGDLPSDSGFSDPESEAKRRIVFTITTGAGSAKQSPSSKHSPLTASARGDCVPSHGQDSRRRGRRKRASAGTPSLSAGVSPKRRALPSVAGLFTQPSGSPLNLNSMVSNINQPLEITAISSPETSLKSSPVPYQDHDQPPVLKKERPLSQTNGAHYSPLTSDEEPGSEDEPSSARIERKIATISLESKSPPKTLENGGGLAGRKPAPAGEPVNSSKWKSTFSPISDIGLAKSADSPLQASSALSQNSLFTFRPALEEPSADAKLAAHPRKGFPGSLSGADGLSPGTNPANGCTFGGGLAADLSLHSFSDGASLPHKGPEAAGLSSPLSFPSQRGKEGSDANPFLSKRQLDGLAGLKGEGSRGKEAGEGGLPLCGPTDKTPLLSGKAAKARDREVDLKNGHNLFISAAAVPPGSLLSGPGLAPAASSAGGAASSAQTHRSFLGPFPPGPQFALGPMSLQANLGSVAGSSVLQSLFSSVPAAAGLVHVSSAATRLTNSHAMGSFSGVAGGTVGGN
structure (smiles),measurement,setting,value
CCCc1cc(C)[nH]c(=O)c1CNC(=O)c1cc(-c2ccc(N3CCN(C(C)C)CC3)nc2)cc2c1cnn2C(C)C,Cmax,Mus musculus,4.7 µM
same,IC50,[1],< 10 nM
CN1C(=O)[C@@H]2C[C@@]3([C@@]45C[C@H]6C(=O)N(C)[C@@H](CO)C(=O)N6[C@@H]4Nc4ccccc45)c4ccccc4N[C@H]3N2C(=O)[C@@H]1CO,IC50,[2],> 50000 nM
NCCCN(CC[C@H](N)C(=O)O)C[C@H]1O[C@@H](n2cnc3c(N)ncnc32)[C@H](O)[C@@H]1O,IC50,[3],3900 nM
O=c1oc2c(O)c(O)cc3c(=O)oc4c(O)c(O)cc1c4c23,inhibition,[4],> 50%
Cc1cc(C)c(CNC(=O)c2cc(-c3ccc4c(c3)OCCO4)nc3c2cnn3C(C)C)c(=O)[nH]1,IC50,[5],620 nM
CCCc1cc(C)[nH]c(=O)c1CNC(=O)c1cc(-c2ccc(N3CCN(CCCCc4cn(CCN5C(=O)\C(=C/C=C/C=C6/N(CCC(=O)OCOC(C)=O)c7ccc(C(=O)OCOC(C)=O)cc7C6(C)C)C(=O)N(CC)C5=O)nn4)CC3)nc2)cc2c1cnn2C(C)C,IC50,[1],21 nM
COc1ccc(/N=N/c2c(S(=O)(=O)O)cc3cc(Nc4nc(Cl)nc(Cl)n4)ccc3c2O)cc1,IC50,[6],4200 nM
same,IC50,[7],2600 nM
CCC(CC)n1ccc2c(C(=O)NCc3c(C)cc(C)[nH]c3=O)cc(C#N)cc21,IC50,[8],15 nM
same,Ki,[9],13 nM
same,IC50,[10],13 nM
COc1cc2c(NC3CCN(CCCCCN)CC3)nc(NCCCN(C)C)nc2cc1OCCCCCN,IC50,[11],100 nM
Cc1ccc(/N=C2\CC(=O)c3sc(C)nc3C2=O)cc1,IC50,[12],500 nM
O=C1COc2c(CCNCCN(C(=O)CCNCCc3ccc(Cl)c(Cl)c3)C3CCCCC3)ccc(O)c2N1,Kd,[13],500 nM
CC(C)N(CCCNC(=O)Nc1ccc(C(C)(C)C)cc1)C[C@H]1O[C@@H](n2ccc3c(N)ncnc32)[C@H](O)[C@@H]1O,IC50,cells [14],> 10000 nM
same,IC50,REH,> 10000 nM
same,IC50,Jurkat,> 10000 nM
same,IC50,Kasumi 1,> 10000 nM
same,IC50,697,> 10000 nM
same,IC50,cells [15],> 10000 nM
O=C1C(Cl)=C(NCCN2CCOCC2)C(=O)c2ncccc21,Ratio IC50,Homo sapiens [16],2.5
same,Ratio IC50,Homo sapiens [17],> 6
same,Ratio IC50,Homo sapiens [18],> 6
CC(C)N(CCCNC(=O)Nc1ccc(C(C)(C)C)cc1)C[C@H]1O[C@@H](n2cc(Br)c3c(N)ncnc32)[C@H](O)[C@@H]1O,IC50,[19],8.8 nM
